From ChEMBL document CHEMBL5252574, “α-Synuclein Aggregation Inhibitory Procerolides and Diphenylalkanes from the Ascidian Polycarpa procera” (J Nat Prod, 2023)
Active and inactive are the calls of the source. The rule behind the calls is not given here.

Legend:
Staphylococcus aureus [1] = assay: Antibacterial activity against methicillin-susceptible Staphylococcus aureus ATCC 25923 incubated for 18 hrs by microdilution method; assay type: functional, organism-based
Staphylococcus aureus [2] = assay: Antibacterial activity against methicillin- resistant Staphylococcus aureus ATCC 43300 incubated for 18 hrs by microdilution method; assay type: functional, organism-based
Pseudomonas aeruginosa = assay: Antibacterial activity against Pseudomonas aeruginosa ATCC 27853 incubated for 18 hrs by microdilution method; assay type: functional, organism-based
[3] = target: Alpha-synuclein (Homo sapiens) (UniProt P37840); assay: Inhibition of human alpha-syn expressed in Escherichia coli BL21 (DE3) cells aggregation incubated for 36 hrs by ThT dye based fluorescence assay

| inhibition [3] | Structure (SMILES) | Activity (Staphylococcus aureus [1]) | Activity (Staphylococcus aureus [2]) | Activity (Pseudomonas aeruginosa) |
| --- | --- | --- | --- | --- |
| inactive | CCOC(=O)C1(Cc2ccc(OC)cc2)OC(=O)C(O)=C1c1ccccc1 (configuration not stated) |  |  |  |
| inactive | CCOC(=O)C1(Cc2ccc(C)cc2)OC(=O)C(O)=C1c1ccc(C)cc1 (configuration not stated) |  |  |  |
| inactive | CCOC(=O)C1(Cc2cccc(OC)c2)OC(=O)C(O)=C1c1cccc(OC)c1 (configuration not stated) |  |  |  |
| inactive | CCOC(=O)C1(Cc2ccc(Cl)cc2)OC(=O)C(O)=C1c1ccc(Cl)cc1 (configuration not stated) |  |  |  |

Further lines, the compound ahead of its results:

| Structure (SMILES) | inhibition [3] | Activity (Staphylococcus aureus [1]) | Activity (Staphylococcus aureus [2]) | Activity (Pseudomonas aeruginosa) |
| --- | --- | --- | --- | --- |
| COc1ccc(C[C@H](O)C(=O)c2cc(Br)c(O)c(Br)c2)cc1Br |  | inactive | inactive | inactive |
| CCOC(=O)C1(Cc2ccc(OC)cc2)OC(=O)C(O)=C1c1ccc(OC)cc1 (configuration not stated) | inactive |  |  |  |
| COC1=C(c2cc(Br)c(O)c(Br)c2)[C@H](Cc2ccc(OC)c(Br)c2)OC1=O |  | inactive | inactive | inactive |
| CCCC(C)CC1(C(=O)OCC)OC(=O)C(O)=C1c1ccc(OC)cc1 (configuration not stated) | inactive |  |  |  |
| COC1=C(c2cc(Br)c(O)c(Br)c2)[C@H](Cc2cc(Br)c(OC)c(Br)c2)OC1=O |  | inactive | inactive | inactive |
| CCOC(=O)C1(Cc2ccccc2)OC(=O)C(O)=C1c1ccc(OC)cc1 (configuration not stated) | inactive |  |  |  |
| CCOC(=O)C1(Cc2ccccc2)OC(=O)C(O)=C1c1ccccc1 (configuration not stated) | inactive |  |  |  |
